Test results taken from the supplement of paper PMC6045584.
± gives the standard deviation of the averaged measurements.

Legend:
TIOGUANINE [1] = compound: T1, Nc1nc2[nH]cnc2c(=S)[nH]1 [TIOGUANINE]; test: area under dose-response curve of surviving fraction (unscaled, Aref=0) (surviving fraction x log10(nM)); higher = more resistant; conditions: exposure time: 5 days; dose range 0.5-1000 nM
Outline: (§1)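 Tumour cell lines in 384-well plates were exposed for five days to eight inhibitor concentrations from 0.5 to 1000 nM. Viability was read by CellTiter-Glo luminescence, normalised to DMSO-only wells, in three screens per line. Dose-response survival curves were fitted to surviving fractions by 3-parameter logistic regression in the drc R package. Area under the curve is the unscaled activity area (Aref = 0) over log10 dose.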

AFATINIB [2] = compound: T2, CN(C)C/C=C/C(=O)Nc1cc2c(Nc3ccc(F)c(Cl)c3)ncnc2cc1O[C@H]1CCOC1 [AFATINIB]; test: as above; conditions: exposure time: 5 days; dose range 0.5-1000 nM
Outline: as §1

MDV3100 [3] = compound: T3, CNC(=O)c1ccc(N2C(=S)N(c3ccc(C#N)c(C(F)(F)F)c3)C(=O)C2(C)C)cc1F [MDV3100]; test: as above; conditions: exposure time: 5 days; dose range 0.5-1000 nM
Outline: as §1

CANERTINIB [4] = compound: T4, C=CC(=O)Nc1cc2c(Nc3ccc(F)c(Cl)c3)ncnc2cc1OCCCN1CCOCC1 [CANERTINIB]; test: as above; conditions: exposure time: 5 days; dose range 0.5-1000 nM
Outline: as §1

SAPACITABINE [5] = compound: T5, CCCCCCCCCCCCCCCC(=O)Nc1ccn([C@@H]2O[C@H](CO)[C@@H](O)[C@@H]2C#N)c(=O)n1 [SAPACITABINE]; test: as above; conditions: exposure time: 5 days; dose range 0.5-1000 nM
Outline: as §1

SNX-5422 [6] = compound: T6, CC1(C)CC(=O)c2c(C(F)(F)F)nn(-c3ccc(C(N)=O)c(N[C@H]4CC[C@H](OC(=O)CN)CC4)c3)c2C1 [SNX-5422]; test: as above; conditions: exposure time: 5 days; dose range 0.5-1000 nM
Outline: as §1

BI-2536 [7] = compound: T7, CC[C@@H]1C(=O)N(C)c2cnc(Nc3ccc(C(=O)NC4CCN(C)CC4)cc3OC)nc2N1C1CCCC1 [BI-2536]; test: as above; conditions: exposure time: 5 days; dose range 0.5-1000 nM
Outline: as §1

[8] = compound: Cn1cc(C2=Nc3cc(NC(=O)C(N)C4CCCCC4)cc4c3C2=CNNC4=O)cn1; test: as above; conditions: exposure time: 5 days; dose range 0.5-1000 nM
Outline: as §1

TIOGUANINE [9] = compound: T1, TIOGUANINE; test: surviving fraction relative to DMSO-only wells; higher = less growth inhibition; conditions: exposure time: 5 days
Outline: (§2)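 Log-phase tumour cells were seeded at 250–500 per well in 384-well plates and, from 24 hours after seeding, exposed continuously for five days to inhibitors at 0.5, 1, 5, 10, 50, 100, 500 and 1000 nM. Surviving fraction is CellTiter-Glo luminescence normalised to the median of DMSO-only wells. Luminescence was measured after 10 minutes at room temperature, and only lines screened three times with replicate Pearson r >0.7 and median Z' >0.3 were kept.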

AFATINIB [10] = compound: T2, AFATINIB; test: as above; conditions: exposure time: 5 days
Outline: as §2

MDV3100 [11] = compound: T3, MDV3100; test: as above; conditions: exposure time: 5 days
Outline: as §2

CANERTINIB [12] = compound: T4, CANERTINIB; test: as above; conditions: exposure time: 5 days
Outline: as §2

SAPACITABINE [13] = compound: T5, SAPACITABINE; test: as above; conditions: exposure time: 5 days
Outline: as §2

SNX-5422 [14] = compound: T6, SNX-5422; test: as above; conditions: exposure time: 5 days
Outline: as §2

BI-2536 [15] = compound: T7, BI-2536; test: as above; conditions: exposure time: 5 days
Outline: as §2

[16] = compound: Cn1cc(C2=Nc3cc(NC(=O)C(N)C4CCCCC4)cc4c3C2=CNNC4=O)cn1; test: as above; conditions: exposure time: 5 days
Outline: as §2

Q: HUO3N1 BONE was tested. Which “area under dose-response curve” value (TIOGUANINE [1]) did it give?
A: 3.41

Q: And the “area under dose-response curve” value (AFATINIB [2])?
A: 3.17

Q: What about the “area under dose-response curve” value (MDV3100 [3]) of the same test system?
A: 3.37

Q: What about the “area under dose-response curve” value (CANERTINIB [4]) of the same test system?
A: 3.18

Q: What about the “area under dose-response curve” value (SAPACITABINE [5]) of the same test system?
A: 2.73

Q: And the “area under dose-response curve” value (SNX-5422 [6])?
A: 2.53

Q: What about the “area under dose-response curve” value (BI-2536 [7]) of the same test system?
A: 1.56

Q: And the “area under dose-response curve” value [8]?
A: 2.88

Q: What about the surviving fraction (TIOGUANINE [9]; 0.5 nM) of the same test system?
A: 0.992 ± 0.071

Q: And the surviving fraction (TIOGUANINE [9]; 1 nM)?
A: 1.02 ± 0.098

Q: And the surviving fraction (TIOGUANINE [9]; 5 nM)?
A: 1.1 ± 0.059

Q: And the surviving fraction (TIOGUANINE [9]; 10 nM)?
A: 0.98 ± 0.058

Q: What about the surviving fraction (TIOGUANINE [9]; 50 nM) of the same test system?
A: 1.02 ± 0.019

Q: And the surviving fraction (TIOGUANINE [9]; 100 nM)?
A: 1.06 ± 0.049

Q: What about the surviving fraction (TIOGUANINE [9]; 500 nM) of the same test system?
A: 1.06 ± 0.055

Q: And the surviving fraction (TIOGUANINE [9]; 1000 nM)?
A: 1.02 ± 0.018

Q: And the surviving fraction (AFATINIB [10]; 0.5 nM)?
A: 1.03 ± 0.034

Q: And the surviving fraction (AFATINIB [10]; 1 nM)?
A: 1 ± 0.019

Q: And the surviving fraction (AFATINIB [10]; 5 nM)?
A: 1.06 ± 0.027

Q: What about the surviving fraction (AFATINIB [10]; 10 nM) of the same test system?
A: 1.04 ± 0.068

Q: What about the surviving fraction (AFATINIB [10]; 50 nM) of the same test system?
A: 1.03 ± 0.031

Q: What about the surviving fraction (AFATINIB [10]; 100 nM) of the same test system?
A: 0.959 ± 0.017

Q: And the surviving fraction (AFATINIB [10]; 500 nM)?
A: 0.824 ± 0.028

Q: What about the surviving fraction (AFATINIB [10]; 1000 nM) of the same test system?
A: 0.631 ± 0.034

Q: What about the surviving fraction (MDV3100 [11]; 0.5 nM) of the same test system?
A: 1.01 ± 0.018

Q: And the surviving fraction (MDV3100 [11]; 1 nM)?
A: 0.989 ± 0.025

Q: What about the surviving fraction (MDV3100 [11]; 5 nM) of the same test system?
A: 1.01 ± 0.044

Q: And the surviving fraction (MDV3100 [11]; 10 nM)?
A: 1.03 ± 0.044

Q: What about the surviving fraction (MDV3100 [11]; 50 nM) of the same test system?
A: 1.06 ± 0.054

Q: What about the surviving fraction (MDV3100 [11]; 100 nM) of the same test system?
A: 1.02 ± 0.041

Q: What about the surviving fraction (MDV3100 [11]; 500 nM) of the same test system?
A: 1.01 ± 0.069

Q: And the surviving fraction (MDV3100 [11]; 1000 nM)?
A: 1.01 ± 0.019

Q: And the surviving fraction (CANERTINIB [12]; 0.5 nM)?
A: 0.949 ± 0.063

Q: What about the surviving fraction (CANERTINIB [12]; 1 nM) of the same test system?
A: 0.949 ± 0.015

Q: And the surviving fraction (CANERTINIB [12]; 5 nM)?
A: 0.965 ± 0.069

Q: And the surviving fraction (CANERTINIB [12]; 10 nM)?
A: 0.943 ± 0.069

Q: What about the surviving fraction (CANERTINIB [12]; 50 nM) of the same test system?
A: 1 ± 0.027

Q: What about the surviving fraction (CANERTINIB [12]; 100 nM) of the same test system?
A: 0.995 ± 0.02

Q: And the surviving fraction (CANERTINIB [12]; 500 nM)?
A: 0.808 ± 0.03

Q: And the surviving fraction (CANERTINIB [12]; 1000 nM)?
A: 0.701 ± 0.022

Q: What about the surviving fraction (SAPACITABINE [13]; 0.5 nM) of the same test system?
A: 0.915 ± 0.032

Q: And the surviving fraction (SAPACITABINE [13]; 1 nM)?
A: 0.908 ± 0.036

Q: And the surviving fraction (SAPACITABINE [13]; 5 nM)?
A: 0.931 ± 0.037

Q: What about the surviving fraction (SAPACITABINE [13]; 10 nM) of the same test system?
A: 0.935 ± 0.024

Q: And the surviving fraction (SAPACITABINE [13]; 50 nM)?
A: 0.886 ± 0.056

Q: What about the surviving fraction (SAPACITABINE [13]; 100 nM) of the same test system?
A: 0.766 ± 0.056

Q: And the surviving fraction (SAPACITABINE [13]; 500 nM)?
A: 0.528 ± 0.012

Q: And the surviving fraction (SAPACITABINE [13]; 1000 nM)?
A: 0.438 ± 0.019

Q: What about the surviving fraction (SNX-5422 [14]; 0.5 nM) of the same test system?
A: 0.99 ± 0.02

Q: And the surviving fraction (SNX-5422 [14]; 1 nM)?
A: 1.03 ± 0.021

Q: What about the surviving fraction (SNX-5422 [14]; 5 nM) of the same test system?
A: 1.07 ± 0.032

Q: And the surviving fraction (SNX-5422 [14]; 10 nM)?
A: 1.1 ± 0.06

Q: And the surviving fraction (SNX-5422 [14]; 50 nM)?
A: 0.767 ± 0.023

Q: And the surviving fraction (SNX-5422 [14]; 100 nM)?
A: 0.503 ± 0.026

Q: What about the surviving fraction (SNX-5422 [14]; 500 nM) of the same test system?
A: 0.391 ± 0.02

Q: What about the surviving fraction (SNX-5422 [14]; 1000 nM) of the same test system?
A: 0.319 ± 0.0095

Q: What about the surviving fraction (BI-2536 [15]; 0.5 nM) of the same test system?
A: 0.991 ± 0.0085

Q: What about the surviving fraction (BI-2536 [15]; 1 nM) of the same test system?
A: 0.994 ± 0.071

Q: What about the surviving fraction (BI-2536 [15]; 5 nM) of the same test system?
A: 0.6 ± 0.1

Q: And the surviving fraction (BI-2536 [15]; 10 nM)?
A: 0.242 ± 0.035

Q: What about the surviving fraction (BI-2536 [15]; 50 nM) of the same test system?
A: 0.211 ± 0.0099

Q: What about the surviving fraction (BI-2536 [15]; 100 nM) of the same test system?
A: 0.204 ± 0.022

Q: What about the surviving fraction (BI-2536 [15]; 500 nM) of the same test system?
A: 0.265 ± 0.014

Q: And the surviving fraction (BI-2536 [15]; 1000 nM)?
A: 0.303 ± 0.016

Q: And the surviving fraction ([16]; 0.5 nM)?
A: 1.01 ± 0.021

Q: And the surviving fraction ([16]; 1 nM)?
A: 0.991 ± 0.062

Q: And the surviving fraction ([16]; 5 nM)?
A: 1.02 ± 0.039

Q: What about the surviving fraction ([16]; 10 nM) of the same test system?
A: 1.03 ± 0.023

Q: And the surviving fraction ([16]; 50 nM)?
A: 0.975 ± 0.043

Q: What about the surviving fraction ([16]; 100 nM) of the same test system?
A: 0.863 ± 0.041

Q: What about the surviving fraction ([16]; 500 nM) of the same test system?
A: 0.504 ± 0.024

Q: And the surviving fraction ([16]; 1000 nM)?
A: 0.319 ± 0.04
